ChEMBL document CHEMBL1201862, “PubChem BioAssay data set” (2004)
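Briefly, cells in 96-well plates were exposed to five compound concentrations for 48 h, and endpoints were estimated by linear interpolation. GI50 is the concentration that inhibits growth by half.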 The source made the active and inactive calls. Cut-off read from the data, not from the text of the source: active = GI50 up to about 1.1 µM and inactive = higher.

Legend:
Assay in all cases: DTP human tumour cell line panel, 48 h
[1] = system: BT-549
[2] = system: MDA-MB-435
[3] = system: NCI/ADR-RES
[4] = system: PC-3
[5] = system: IGROV-1
[6] = system: CAKI-1
[7] = system: LOX IMVI
[8] = system: CCRF-CEM
[9] = system: HCT-15
[10] = system: SK-MEL-28
[11] = system: OVCAR-5
[12] = system: UO-31
[13] = system: RPMI-8226
[14] = system: UACC-257
[15] = system: M14
[16] = system: U-251
[17] = system: HOP-62
[18] = system: EKVX
[19] = system: MDA-N
[20] = system: HL-60

Measured: GI50

O=C1/C(=C\c2cccc(Oc3ccccc3)c2)S(=O)(=O)C(c2ccccc2)N1c1cccc(Cl)c1 (stereo unspecified)
inactive: [1] 45.8 µM | [2] 38.5 µM | [3] 35.4 µM | [4] > 100 µM | [5] 38.9 µM | [6] 78.2 µM | [7] 19 µM | [8] 11.1 µM | [10] > 100 µM | [11] > 100 µM | [12] 34.7 µM | [13] 25.9 µM | [14] 74.6 µM | [15] 40.8 µM | [16] 50.4 µM | [17] 98.2 µM | [18] 51.1 µM | [19] 25.9 µM
40.6 µM: [9]

CN(C)CCCN1c2ccccc2CCc2cc([N+](=O)[O-])ccc21
34.4 µM: [9]
inactive: [1] 22.4 µM | [2] 21.6 µM | [3] 26.9 µM | [4] 25.4 µM | [5] 20.3 µM | [6] 26.8 µM | [7] 19.1 µM | [11] 25.5 µM | [12] 22.2 µM | [13] 21.5 µM | [14] 20.1 µM | [15] 18.9 µM | [16] 26.3 µM | [17] 21.8 µM | [18] 33.9 µM | [19] 19.6 µM

CC(C)(CC(O)C#N)/[N+]([O-])=[N+](\[O-])C(C)(C)CC(O)C#N (stereo unspecified)
inactive: [1] 20.6 µM | [2] 32.9 µM | [3] 38.2 µM | [4] 28.2 µM | [5] 21.2 µM | [6] 10.9 µM | [7] 17.6 µM | [10] 26.6 µM | [11] 23.5 µM | [12] 26.9 µM | [13] 19.4 µM | [14] 20.4 µM | [15] 16 µM | [16] 26.5 µM | [17] 19.4 µM | [18] 32.6 µM | [19] 20.7 µM
15.2 µM: [9]

C=CCSC1=N/C(=C\c2cccs2)C(=O)N1CC=C
inactive: [1] 44.4 µM | [2] 60.3 µM | [3] 75.2 µM | [4] 33.7 µM | [5] > 100 µM | [6] > 100 µM | [7] 46.1 µM | [10] > 100 µM | [11] > 100 µM | [12] 37.4 µM | [13] 21.9 µM | [14] 49.8 µM | [15] 54.5 µM | [16] 61.5 µM | [17] > 100 µM | [18] 19.2 µM | [19] 42.9 µM
66.1 µM: [9]

O=C1CCCc2cc3c(cc21)CCC3C(=O)O (stereo unspecified)
> 100 µM: [9]
inactive: [1] > 100 µM | [3] > 100 µM | [20] > 100 µM | [4] > 100 µM | [5] > 100 µM | [6] > 100 µM | [7] > 100 µM | [8] > 100 µM | [10] > 100 µM | [11] > 100 µM | [12] > 100 µM | [13] > 100 µM | [14] > 100 µM | [15] > 100 µM | [16] > 100 µM | [17] > 100 µM | [18] > 100 µM | [19] > 100 µM

CC(C)Nc1[nH]c(C(=O)c2ccccc2)c(N)c1C(=S)Nc1ccccc1
inactive: [1] > 100 µM | [2] 30.8 µM | [3] > 100 µM | [20] > 100 µM | [4] > 100 µM | [5] > 100 µM | [6] > 100 µM | [7] 23.2 µM | [8] > 100 µM | [10] 17.4 µM | [11] > 100 µM | [12] 77.1 µM | [14] 22.9 µM | [15] 23.2 µM | [16] 43.2 µM | [17] > 100 µM | [18] > 100 µM | [19] 40.4 µM
32.8 µM: [9]

COc1c(-c2nc3ccc(N4CCN(C)CC4)nc3[nH]2)cc(OC)c2c1nc(COC(C)=O)n2C
> 100 µM: [9]
inactive: [1] > 100 µM | [2] 71.8 µM | [3] > 100 µM | [4] 94.8 µM | [5] > 100 µM | [6] > 100 µM | [7] > 100 µM | [11] > 100 µM | [12] > 100 µM | [14] 45.3 µM | [15] > 100 µM | [16] 97.1 µM | [17] > 100 µM | [18] > 100 µM | [19] > 100 µM

CC(=O)NC1C(OCC(=O)NC(C)C(=O)NC(CCC(=O)NCCCCCNc2ccc([N+](=O)[O-])c3[nH]c4ccccc4c(=O)c23)C(N)=O)C(O)C(CO)OC1(C)OCc1ccccc1 (stereo unspecified)
inactive: [1] > 50 µM | [2] > 50 µM | [3] > 50 µM | [4] > 50 µM | [5] > 50 µM | [6] > 50 µM | [7] > 50 µM | [8] 3.75 µM | [11] > 50 µM | [12] > 50 µM | [14] > 50 µM | [15] > 50 µM | [16] 39.3 µM | [17] 14.8 µM | [18] > 50 µM | [19] > 50 µM
> 50 µM: [9]
active: [13] 0.005 µM

CCN(CC)c1ccc(/C=c2\nc(-c3ccccc3)n3c2nc2ccccc23)cc1
inactive: [1] 16.9 µM | [2] 8.71 µM | [3] 3.98 µM | [4] 1.93 µM | [5] 7.82 µM | [7] 2.04 µM | [11] 77.3 µM | [12] 13.5 µM | [13] 1.48 µM | [14] 21.9 µM | [15] 7.46 µM | [16] 2.1 µM | [17] 7.19 µM | [18] 1.67 µM | [19] 6.25 µM
active: [6] 0.885 µM | [8] 0.544 µM | [10] 0.0231 µM
1.23 µM: [9]

COC(=O)[C@]1(C)[C@H]2C[C@H]3O[C@H]4[C@H](O)[C@@H](O)OC(CC(O)C(C5=CC(=O)OC5)C(C5=CC(=O)OC5)C(O)CC56CCCCC7[C@@H](C)[C@H](C[C@H]8[C@](C)(C(=O)OC)[C@H](O)CC[C@]78C)O[C@H]([C@@H](O)[C@H](O)O5)[C@H]6O)(CCCCC([C@@H]3C)[C@]2(C)CC[C@@H]1O)[C@H]4O (stereo partly specified)
active: [1] 0.0625 µM | [2] 0.247 µM | [3] 0.0973 µM | [20] 0.0513 µM | [4] 0.065 µM | [5] 0.0959 µM | [6] 0.0488 µM | [7] 0.0993 µM | [8] 0.0603 µM | [10] 0.262 µM | [11] 0.592 µM | [12] 0.057 µM | [14] 0.244 µM | [15] 0.332 µM | [16] 0.194 µM | [17] 0.065 µM | [18] 0.0295 µM | [19] 0.138 µM
0.143 µM: [9]

COc1cc2oc(-c3ccc(O)cc3)cc(=O)c2c(OC)c1O
inactive: [1] 67.9 µM | [2] > 100 µM | [3] > 100 µM | [20] 21.2 µM | [5] 57.3 µM | [6] > 100 µM | [7] 60.5 µM | [8] > 100 µM | [10] > 100 µM | [11] > 100 µM | [12] 33.2 µM | [13] 89.9 µM | [14] > 100 µM | [15] > 100 µM | [16] 38.9 µM | [17] 29.2 µM | [18] > 100 µM | [19] > 100 µM
92.7 µM: [9]
